In patent publication US20220395497A1, “Cancer Treatment Using Camptothecin Derivatives” (priority 2019, published 2022):
Several values for one entry are separate records, joined by “and”; a condition that tells them apart may be missing. Equal entries are not always repeated. Entries after “also recorded” stand apart in the source; their conditions may differ.

Test system: adults with recurrence of glioblastoma multiforme (GBM)
Test: Phase 2 open-label study of IV AR-67 (7.5 mg/m2 once daily for 5 days, 21-day cycle) in recurrent GBM: adverse events (Safety Population, NCI-CTCAE). Cohort 1 = not received or not recently failed (>90 days) bevacizumab; Cohort 2 = recently (<90 days) failed bevacizumab
Format: in vivo, human
Conditions: for 1 related SAE, patients (%) / related SAE, No of Events / related TEAE, No of Events / ≥1 related TEAE, patients (%): possibly, probably, or definitely related
Procedure: This solution was reconstituted in dextrose 5% in water to a final concentration between 0.06-0.6 mg/mL Drug (7.5 mg/m2) was to be given until the onset of toxicity requiring discontinuation or tumor progression. Tumor response was assessed=14d after every second cycle and before every third cycle using MRI.

[1] = reGBM, single agent, infusion, N = 45

With `CC[C@@]1(O)C(=O)OCc2c1cc1n(c2=O)Cc2c-1nc1ccc(O)cc1c2[Si](C)(C)C(C)(C)C` [AR-67, (205)-7-tert-butyldimethysilyl-10-hydroxycamptothecin] the “TEAE NCI-CTCAE Grade 1, No of Events” value (Cohort 1, N = 30) was 178, the “TEAE NCI-CTCAE Grade 1, patients (%)” value (Cohort 1, N = 30) was “(70.0) %” and the “TEAE NCI-CTCAE Grade 2, No of Events” value (Cohort 1, N = 30) was 94. The “TEAE NCI-CTCAE Grade 2, patients (%)” value (Cohort 1, N = 30) was “(60.0) %”, the “TEAE NCI-CTCAE Grade 3, No of Events” value (Cohort 1, N = 30) was 63 and the “TEAE NCI-CTCAE Grade 3, patients (%)” value (Cohort 1, N = 30) was “(63.3) %”. The “TEAE NCI-CTCAE Grade 4, No of Events” value (Cohort 1, N = 30) was 5, the “TEAE NCI-CTCAE Grade 4, patients (%)” value (Cohort 1, N = 30) was “(16.7) %” and the “TEAE NCI-CTCAE Grade 5, No of Events” value (Cohort 1, N = 30) was 0. For the same compound, the “TEAE Nausea, patients (%)” value (Cohort 1, N = 30) was 13.3%, the “TEAE Nervous System Disorders, patients (%)” value (Cohort 1, N = 30) was “(50.0) %” and the “TEAE Neutropenia, patients (%)” value (Cohort 1, N = 30) was 16.7%. The “TEAE Neutrophil count decreased, patients (%)” value (Cohort 1, N = 30) was 16.7%, the “TEAE Not Related to AR-67, No of Events” value (Cohort 1, N = 30) was 83 and the “TEAE Not Related to AR-67, patients (%)” value (Cohort 1, N = 30) was “(66.7) %”. For the same compound, the “TEAE Platelet count decreased, patients (%)” value (Cohort 1, N = 30) was 13.3%, the “TEAE Possibly Related to AR-67, No of Events” value (Cohort 1, N = 30) was 146 and the “TEAE Possibly Related to AR-67, patients (%)” value (Cohort 1, N = 30) was “(66.7) %”. For the same compound, the “TEAE Probably Related to AR-67, No of Events” value (Cohort 1, N = 30) was 76, the “TEAE Probably Related to AR-67, patients (%)” value (Cohort 1, N = 30) was “(40.0) %” and the “TEAE Psychiatric Disorders, patients (%)” value (Cohort 1, N = 30) was 30.0%. The “TEAE Respiratory, Thoracic, and Mediastinal Disorders, patients (%)” value (Cohort 1, N = 30) was “(30.0) %”, the “TEAE Thrombocytopenia, patients (%)” value (Cohort 1, N = 30) was 20% and the “TEAE Vascular Disorders, patients (%)” value (Cohort 1, N = 30) was “(23.3) %”. The “TEAE Vision blurred, patients (%)” value (Cohort 1, N = 30) was “(10.0) %”, the “TEAE Vomiting, patients (%)” value (Cohort 1, N = 30) was 10.0% and the “TEAE White blood cell count decreased, patients (%)” value (Cohort 1, N = 30) was 16.7%. For the same compound, the “TEAE leading to death, No of Events” value (Cohort 1, N = 30) was 16, the “TEAE leading to early discontinuation, No of Events” value (Cohort 1, N = 30) was 5 and the “TEAE, No of Events” value (Cohort 1, N = 30) was 346. For the same compound, the “severe WBC count decreased, patients (%)” value (Cohort 1, N = 30) was 10.0%, the “severe neutropenia, patients (%)” value (Cohort 1, N = 30) was 16.7% and the “severe neutrophil count decreased, patients (%)” value (Cohort 1, N = 30) was 10.0%. For the same compound, the “≥1 TEAE leading to death, patients (%)” value (Cohort 1, N = 30) was “(3.3) %”, the “1 related SAE, patients (%)” value (Cohort 1, N = 30) was “(20.0) %” and the “related SAE, No of Events” value (Cohort 1, N = 30) was 10. The “related TEAE, No of Events” value (Cohort 1, N = 30) was 258, the “≥1 related TEAE, patients (%)” value (Cohort 1, N = 30) was “(83.3) %” and the “SAE blood and lymphatic system disorders, events” value (Cohort 2) was 3. For the same compound, the “SAE blood and lymphatic system disorders, patients” value (Cohort 2) was 2, the “SAE headache, patients” value (Cohort 2) was 2 and the “SAE nervous system disorders, events” value (Cohort 2) was 6. For the same compound, the “SAE nervous system disorders, patients” value (Cohort 2) was 6, the “Death, No of Events” value (Cohort 2, N = 13) was 2 and the “Death, patients (%)” value (Cohort 2, N = 13) was “(15.4) %”. The “SAE, No of Events” value (Cohort 2, N = 13) was 14, the “TEAE Blood and Lymphatic System Disorders, events” value (Cohort 2, N = 13) was 3 and the “TEAE Blood and Lymphatic System Disorders, patients (%)” value (Cohort 2, N = 13) was 15.4% and 15%. For the same compound, the “TEAE Constipation, patients (%)” value (Cohort 2, N = 13) was 15.4% and 15%, the “TEAE Convulsion, patients (%)” value (Cohort 2, N = 13) was 7.7% and the “TEAE Definitely Related to AR-67, No of Events” value (Cohort 2, N = 13) was 8. For the same compound, the “TEAE Definitely Related to AR-67, patients (%)” value (Cohort 2, N = 13) was “(38.5) %”, the “TEAE Diarrhoea, patients (%)” value (Cohort 2, N = 13) was 15.4% and 15% and the “TEAE Eye Disorders, patients (%)” value (Cohort 2, N = 13) was 7.7%. For the same compound, the “TEAE Gastrointestinal Disorders, patients (%)” value (Cohort 2, N = 13) was 53.8%, the “TEAE General Disorders and Administration Site Conditions, patients (%)” value (Cohort 2, N = 13) was 38.5% and the “TEAE Intensity Life Threatening, No of Events” value (Cohort 2, N = 13) was 1. For the same compound, the “TEAE Intensity Life Threatening, patients (%)” value (Cohort 2, N = 13) was “(7.7) %”, the “TEAE Intensity Mild, No of Events” value (Cohort 2, N = 13) was 20 and the “TEAE Intensity Mild, patients (%)” value (Cohort 2, N = 13) was “(53.8) %”. For the same compound, the “TEAE Intensity Moderate, No of Events” value (Cohort 2, N = 13) was 18, the “TEAE Intensity Moderate, patients (%)” value (Cohort 2, N = 13) was “(30.8) %” and the “TEAE Intensity Severe, No of Events” value (Cohort 2, N = 13) was 14. For the same compound, the “TEAE Intensity Severe, patients (%)” value (Cohort 2, N = 13) was “(61.5) %”, the “TEAE Investigations SOC, events” value (Cohort 2, N = 13) was 2 and the “TEAE Investigations, patients (%)” value (Cohort 2, N = 13) was 7.7%. For the same compound, the “TEAE Metabolism and Nutrition Disorders, patients (%)” value (Cohort 2, N = 13) was “(15.4) %”, the “TEAE Musculoskeletal and Connective Tissue Disorders, patients (%)” value (Cohort 2, N = 13) was 23.1% and the “TEAE NCI-CTCAE Grade 1, No of Events” value (Cohort 2, N = 13) was 17. For the same compound, the “TEAE NCI-CTCAE Grade 1, patients (%)” value (Cohort 2, N = 13) was “(53.8) %”, the “TEAE NCI-CTCAE Grade 2, No of Events” value (Cohort 2, N = 13) was 16 and the “TEAE NCI-CTCAE Grade 2, patients (%)” value (Cohort 2, N = 13) was “(30.8) %”. For the same compound, the “TEAE NCI-CTCAE Grade 3, No of Events” value (Cohort 2, N = 13) was 16, the “TEAE NCI-CTCAE Grade 3, patients (%)” value (Cohort 2, N = 13) was “(69.2) %” and the “TEAE NCI-CTCAE Grade 4, No of Events” value (Cohort 2, N = 13) was 3. The “TEAE NCI-CTCAE Grade 4, patients (%)” value (Cohort 2, N = 13) was “(23.1) %”, the “TEAE NCI-CTCAE Grade 5, No of Events” value (Cohort 2, N = 13) was 0 and the “TEAE Nausea, patients (%)” value (Cohort 2, N = 13) was 30.8% and 31%. For the same compound, the “TEAE Nervous System Disorders, patients (%)” value (Cohort 2, N = 13) was 46.2%, the “TEAE Neutropenia, patients (%)” value (Cohort 2, N = 13) was 7.7% and the “TEAE Not Related to AR-67, No of Events” value (Cohort 2, N = 13) was 25. For the same compound, the “TEAE Not Related to AR-67, patients (%)” value (Cohort 2, N = 13) was “(53.8) %”, the “TEAE Possibly Related to AR-67, No of Events” value (Cohort 2, N = 13) was 19 and the “TEAE Possibly Related to AR-67, patients (%)” value (Cohort 2, N = 13) was “(53.8) %”. The “TEAE Probably Related to AR-67, No of Events” value (Cohort 2, N = 13) was 1, the “TEAE Probably Related to AR-67, patients (%)” value (Cohort 2, N = 13) was “(7.7) %” and the “TEAE Psychiatric Disorders, patients (%)” value (Cohort 2, N = 13) was 23.1%. For the same compound, the “TEAE Respiratory, Thoracic, and Mediastinal Disorders, patients (%)” value (Cohort 2, N = 13) was “(15.4) %”, the “TEAE Thrombocytopenia, patients (%)” value (Cohort 2, N = 13) was 7.7% and the “TEAE Vision blurred, patients (%)” value (Cohort 2, N = 13) was 7.7%. For the same compound, the “TEAE Vomiting, patients (%)” value (Cohort 2, N = 13) was 7.7%, the “TEAE leading to death, No of Events” value (Cohort 2, N = 13) was 1 and the “TEAE leading to early discontinuation, No of Events” value (Cohort 2, N = 13) was 5. For the same compound, the “TEAE, No of Events” value (Cohort 2, N = 13) was 55, the “≥1 TEAE leading to death, patients (%)” value (Cohort 2, N = 13) was “(7.7) %” and the “1 related SAE, patients (%)” value (Cohort 2, N = 13) was “(38.5) %”. For the same compound, the “related SAE, No of Events” value (Cohort 2, N = 13) was 9, the “related TEAE, No of Events” value (Cohort 2, N = 13) was 28 and the “≥1 related TEAE, patients (%)” value (Cohort 2, N = 13) was “(76.9) %”. The “patients with AEs documented as mild, moderate, and severe intensity (span over the three)” value (Safety Population) was 58-69%, the “toxicities relative to comparator drug” value (comparison with published trials of the comparator) was “reduced toxicities relative to the toxicities induced by Etirinotecan treatment; also recorded: reduced toxicities relative to the toxicities induced by Karenitecin treatment; also recorded: reduced toxicities relative to the toxicities induced by Gimatecan treatment; also recorded: reduced toxicities relative to the toxicities induced by Lomustine treatment; also recorded: does not display the severe dose limiting toxicities typical of the marketed standard, Irinotecan; also recorded: dramatically reduced toxicities relative to the toxicities induced by Irinotecan treatment” and the “tolerability” value (in vivo) was “generally well tolerated”. The “TEAEs leading to discontinuation from the nervous system disorders SOC, events” value (of the 10 TEAEs leading to discontinuation) was “Six”, the “Diarrhoea Grades 3-5” value (reGBM, single agent, N = 45) was 0% and the “Nausea Grades 3-5” value (reGBM, single agent, N = 45) was 2%. The “Thrombocytopenia Grades 3-4” value (reGBM, single agent, N = 45) was 4%, the “Vomiting Grades 3-5” value (reGBM, single agent, N = 45) was 0% and the “Neutropenia Grades 3-4” value (reGBM, single agent, N = 45, All grade 3) was 13%. For the same compound, the “Diarrhoea Grade 4” value [1] was 0%, the “Nausea Grades 3,4” value [1] was 2% and the “Neutropenia Grade 4” value [1] was 0%. For the same compound, the “Vomiting Grades 3,4” value [1] was 0%.
